Drawing on patent US12247010B2, “Tubulin inhibitors” (LIN BIOSCIENCE PTY LTD., priority 2017, dated 2025), this text covers IC50 for 42 molecules.

The subject of this assay is U87MG cells. Put plainly: Cytotoxicity assay (cell viability, CellTiter 96 Aqueous MTS). It is filed as cell-based. The settings on record: Homo sapiens, U-87 MG, 72 h, 72 hours incubation, starting concentration 50 uM, 9 point half log dilution, average where tested repeatedly. On the procedure: Example 3: Cytotoxicity Assay
U87MG cells were plated at a density of 7×10^3 cells/well and allowed to seed overnight. Cells were then treated with compounds from Table 1 or CMPD-1 (4-(2′-fluoro-[1,1′-biphenyl]-4-yl)-N-(4-hydroxyphenyl)butanamide as a positive control) were added to cells at a starting concentration of 50 uM, with a 9 point half log dilution, and incubated for 72 hours prior to viability determination. IC50 values were calculated from cell viability as measured using the CellTiter 96® Aqueous MTS reagent from Promega©, and the results are shown in Table 2.
In turn, `O=C(CCCc1ccc(-c2ccccc2F)cc1)Nc1ccc2[nH]ncc2c1` [Compound 4, 4-(2′-fluoro-[1,1′-biphenyl]-4-yl)-N-(1H-indazol-5-yl)butanamide] showed an IC50 of 1 to 5 µM.
For `O=C(CCCc1ccc(-c2ccccc2F)cc1)Nc1ccc2[nH]ccc2c1` [Compound 6, 4-(2′-fluoro-[1,1′-biphenyl]-4-yl)-N-(1H-indol-5-yl)butanamide], the IC50 is 1 to 5 µM.
In the case of `O=C(CCCc1ccc(-c2ccccc2F)cc1)Nc1ccc(O)nc1` [Compound 8, 4-(2′-fluoro-[1,1′-biphenyl]-4-yl)-N-(6-hydroxypyridin-3-yl)butanamide], the half-inhibitory concentration (IC50) is more than 5 µM.
Molecule `O=C(CCCc1ccc(-c2ccccc2F)cc1)Nc1cccnc1` [Compound 37, 4-(2′-fluoro-[1,1′-biphenyl]-4-yl)-N-(pyridin-3-yl)butanamide] registered an IC50 of 0.501 to 1 µM.
In the case of `O=C(CCCc1ccc(-c2ccccc2F)cc1)Nc1nccs1` [Compound 38, 4-(2′-fluoro-[1,1′-biphenyl]-4-yl)-N-(thiazol-2-yl)butanamide], the IC50 is more than 5 µM.
The molecule `COc1ccc(NC(=O)CCCc2ccc(-c3ccccc3F)cc2)cn1` [Compound 39, 4-(2′-fluoro-[1,1′-biphenyl]-4-yl)-N-(6-methoxypyridin-3-yl)butanamide] displayed an IC50 of more than 5 µM.
Regarding `O=C(CCCc1ccc(-c2ccccc2F)cc1)Nc1ccccn1` [Compound 40, 4-(2′-fluoro-[1,1′-biphenyl]-4-yl)-N-(pyridin-2-yl)butanamide], the IC50 is more than 5 µM.
In the case of `O=C(CCCc1ccc(-c2ccccc2F)cc1)NCc1cccnc1` [Compound 41, 4-(2′-fluoro-[1,1′-biphenyl]-4-yl)-N-(pyridin-3-ylmethyl)butanamide] it was more than 5 µM; in that of `O=C(CCCc1ccc(-c2ccccc2F)cc1)NCc1ccncc1` [Compound 42, 4-(2′-fluoro-[1,1′-biphenyl]-4-yl)-N-(pyridin-4-ylmethyl)butanamide], 1 to 5 µM.
In the case of `O=C(CCCc1ccc(-c2ccccc2F)cc1)NCc1ccccn1` [Compound 43, 4-(2′-fluoro-[1,1′-biphenyl]-4-yl)-N-(pyridin-2-ylmethyl)butanamide] it was 1 to 5 µM; in that of `COc1ccc(CNC(=O)CCCc2ccc(-c3ccccc3F)cc2)cc1` [Compound 44, 4-(2′-fluoro-[1,1′-biphenyl]-4-yl)-N-(4-methoxybenzyl)butanamide], 0.501 to 1 µM; in that of `Cc1ccc(NC(=O)CCCc2ccc(-c3ccccc3F)cc2)cn1` [Compound 45, 4-(2′-fluoro-[1,1′-biphenyl]-4-yl)-N-(6-methylpyridin-3-yl)butanamide], less than 0.5 µM.
Next, `O=C(CCCc1ccc(-c2ccccc2F)cc1)Nc1cn[nH]c1` [Compound 47, 4-(2′-fluoro-[1,1′-biphenyl]-4-yl)-N-(1H-pyrazol-4-yl)butanamide]: more than 5 µM; `Cn1cc(CNC(=O)CCCc2ccc(-c3ccccc3F)cc2)cn1` [Compound 48, 4-(2′-fluoro-[1,1′-biphenyl]-4-yl)-N-((1-methyl-1H-pyrazol-4-yl)methyl)butanamide]: 1 to 5 µM.
`O=C(CCCc1ccc(-c2ccccc2F)cc1)NCC1CC1` [Compound 50, N-(cyclopropylmethyl)-4-(2′-fluoro-[1,1′-biphenyl]-4-yl)butanamide]: the IC50 was in the range of 1 to 5 µM.
Next, `O=C(CCCc1ccc(-c2ccccc2F)cc1)Nc1ccc(C(F)(F)F)nc1` [Compound 51, 4-(2′-fluoro-[1,1′-biphenyl]-4-yl)-N-(6-(trifluoromethyl)pyridin-3-yl)butanamide]: more than 5 µM; `CN(C(=O)CCCc1ccc(-c2ccccc2F)cc1)c1cccnc1` [Compound 52, 4-(2′-fluoro-[1,1′-biphenyl]-4-yl)-N-methyl-N-(pyridin-3-yl)butanamide]: more than 5 µM; `O=C(CCCc1ccc(-c2ccccc2F)cc1)Nc1ccc2c(c1)OCC(=O)N2` [Compound 53, 4-(2′-fluoro-[1,1′-biphenyl]-4-yl)-N-(3-oxo-3,4-dihydro-2H-benzo[b][1,4]oxazin-7-yl)butanamide]: 0.501 to 1 µM.
In turn, `O=C(CCCc1ccc(-c2ccccc2F)cc1)NC1CCC(F)(F)CC1` [Compound 54, N-(4,4-difluorocyclohexyl)-4-(2′-fluoro-[1,1′-biphenyl]-4-yl)butanamide] yielded an IC50 of more than 5 µM.
With `O=C(CCCc1ccc(-c2ccccc2F)cc1)NC1COC1` [Compound 55, 4-(2′-fluoro-[1,1′-biphenyl]-4-yl)-N-(oxetan-3-yl)butanamide], the IC50 was 1 to 5 µM.
Next, `O=C(CCCc1ccc(-c2ccccc2F)cc1)Nc1ccc2[nH]c(=O)[nH]c2c1` [Compound 58, 4-(2′-fluoro-[1,1′-biphenyl]-4-yl)-N-(2-oxo-2,3-dihydro-1H-benzo[d]imidazol-5-yl)butanamide]: more than 5 µM.
For `O=C(CCCc1ccc(-c2ccccc2F)cc1)Nc1ccc2c(c1)CNC2=O` [Compound 59, 4-(2′-fluoro-[1,1′-biphenyl]-4-yl)-N-(1-oxoisoindolin-5-yl)butanamide], the IC50 was more than 5 µM.
In the case of `O=C(CCCc1ccc(-c2ccccc2F)cc1)NC1CCC(O)CC1` (stereo not drawn) [Compound 62, 4-(2′-fluoro-[1,1′-biphenyl]-4-yl)-N-(4-hydroxycyclohexyl)butanamide] it was more than 5 µM.
In turn, `O=C(CCCc1ccc(-c2ccccc2F)cc1)Nc1ccon1` [Compound 63, 4-(2′-fluoro-[1,1′-biphenyl]-4-yl)-N-(isoxazol-3-yl)butanamide] yielded an IC50 of more than 5 µM.
Turning to `O=C(NCCCc1ccc(-c2ccccc2F)cc1)c1cccnc1` [Compound 64, N-(3-(2′-fluoro-[1,1′-biphenyl]-4-yl)propyl)nicotinamide], the IC50 is less than 0.5 µM.
In turn, `O=C(NCCCc1ccc(-c2ccccc2F)cc1)c1cccnn1` [Compound 65, N-(3-(2′-fluoro-[1,1′-biphenyl]-4-yl)propyl)pyridazine-3-carboxamide] came in with an IC50 of more than 5 µM.
In turn, `O=C(NCCCc1ccc(-c2ccccc2F)cc1)c1cn[nH]c1` [Compound 66, N-(3-(2′-fluoro-[1,1′-biphenyl]-4-yl)propyl)-1H-pyrazole-4-carboxamide] displayed an IC50 of more than 5 µM.
Consider `O=C(NCCCc1ccc(-c2ccccc2F)cc1)c1cncnc1` [Compound 67, N-(3-(2′-fluoro-[1,1′-biphenyl]-4-yl)propyl)pyrimidine-5-carboxamide], for which the IC50 is less than 0.5 µM.
In turn, `O=C(NCCCc1ccc(-c2ccccc2F)cc1)c1ccc2[nH]nnc2c1` [Compound 70, N-(3-(2′-fluoro-[1,1′-biphenyl]-4-yl)propyl)-1H-benzo[d][1,2,3]triazole-5-carboxamide] gave an IC50 of more than 5 µM.
The molecule `Cc1ccc(C(=O)NCCCc2ccc(-c3ccccc3F)cc2)cn1` [Compound 71, N-(3-(2′-fluoro-[1,1′-biphenyl]-4-yl)propyl)-6-methylnicotinamide] returned an IC50 of less than 0.5 µM.
Molecule `O=C(NCCCc1ccc(-c2ccccc2F)cc1)c1ccc2[nH]ncc2c1` [Compound 73, N-(3-(2′-fluoro-[1,1′-biphenyl]-4-yl)propyl)-1H-indazole-5-carboxamide] yielded an IC50 of 1 to 5 µM.
Take `O=C(NCCCc1ccc(-c2ccccc2F)cc1)c1ccc2[nH]ccc2c1` [Compound 74, N-(3-(2′-fluoro-[1,1′-biphenyl]-4-yl)propyl)-1H-indole-5-carboxamide]: the IC50 lay in the range of 0.501 to 1 µM.
Next, `O=C(NCCCc1ccc(-c2ccccc2F)cc1)C1CC(F)(F)C1` [Compound 75, 3,3-difluoro-N-(3-(2′-fluoro-[1,1′-biphenyl]-4-yl)propyl)cyclobutane-1-carboxamide]: more than 5 µM; `O=C(NCCCc1ccc(-c2ccccc2F)cc1)c1cnccn1` [Compound 76, N-(3-(2′-fluoro-[1,1′-biphenyl]-4-yl)propyl)pyrazine-2-carboxamide]: more than 5 µM.
In the case of `O=C(NCCCc1ccc(-c2ccccc2F)cc1)[C@H]1C[C@@H](O)C1` [Compound 77, (1s,3s)-N-(3-(2′-fluoro-[1,1′-biphenyl]-4-yl)propyl)-3-hydroxycyclobutane-1-carboxamide] it was more than 5 µM; in that of `O=C(NCCCc1ccc(-c2ccccc2F)cc1)c1ccc2cn[nH]c2c1` [Compound 79, N-(3-(2′-fluoro-[1,1′-biphenyl]-4-yl)propyl)-1H-indazole-6-carboxamide], more than 5 µM; in that of `Cc1cncc(C(=O)NCCCc2ccc(-c3ccccc3F)cc2)c1` [Compound 80, N-(3-(2′-fluoro-[1,1′-biphenyl]-4-yl)propyl)-5-methylnicotinamide], 1 to 5 µM.
Next, `O=C(NCCCc1ccc(-c2ccccc2F)cc1)C1=CN2C=CNC2C=C1` (stereo not drawn) [Compound 82, N-(3-(2′-fluoro-[1,1′-biphenyl]-4-yl)propyl)-1,8a-dihydroimidazo[1,2-a]pyridine-6-carboxamide]: more than 5 µM.
Take `O=C(NCCCc1ccc(-c2ccccc2F)cc1)c1ccc(C(F)(F)F)nc1` [Compound 83, N-(3-(2′-fluoro-[1,1′-biphenyl]-4-yl)propyl)-6-(trifluoromethyl)nicotinamide]: the IC50 fell in the range of 1 to 5 µM.
On to `O=C(NCCCc1ccc(-c2ccccc2F)cc1)c1nc2ccccc2[nH]1` [Compound 84, N-(3-(2′-fluoro-[1,1′-biphenyl]-4-yl)propyl)-1H-benzo[d]imidazole-2-carboxamide], for which the IC50 was more than 5 µM.
In the case of `O=C(NCCCc1ccc(-c2ccccc2F)cc1)c1cncc(C(F)(F)F)c1` [Compound 85, N-(3-(2′-fluoro-[1,1′-biphenyl]-4-yl)propyl)-5-(trifluoromethyl)nicotinamide] it was 1 to 5 µM; in that of `CN1CCC(C(=O)NCCCc2ccc(-c3ccccc3F)cc2)CC1` [Compound 87, N-(3-(2′-fluoro-[1,1′-biphenyl]-4-yl)propyl)-1-methylpiperidine-4-carboxamide], more than 5 µM.

One may read the IC50 as the concentration needed to halve the response being measured.
